Source: US8242160B2, “Inhibitors of ubiquitin E1” (The United States of America, as represented by the …, priority 2005, dated 2012)

How the values were obtained:
Rabbit E1 = target: T1, Rabbit E1 (Oryctolagus cuniculus, UniProt Q29504); assay: E1 only assay: thiolester linkage between 32P-labeled ubiquitin and E1; assay type: biochemical; conditions: gel-based assay with 32P-labeled ubiquitin; stated after block of E1-ubiquitin thiolester formation (FIG. 1B)
T1 construct: purchased Calbiochem #6620700
T1 sequence (Q29504 1-1058): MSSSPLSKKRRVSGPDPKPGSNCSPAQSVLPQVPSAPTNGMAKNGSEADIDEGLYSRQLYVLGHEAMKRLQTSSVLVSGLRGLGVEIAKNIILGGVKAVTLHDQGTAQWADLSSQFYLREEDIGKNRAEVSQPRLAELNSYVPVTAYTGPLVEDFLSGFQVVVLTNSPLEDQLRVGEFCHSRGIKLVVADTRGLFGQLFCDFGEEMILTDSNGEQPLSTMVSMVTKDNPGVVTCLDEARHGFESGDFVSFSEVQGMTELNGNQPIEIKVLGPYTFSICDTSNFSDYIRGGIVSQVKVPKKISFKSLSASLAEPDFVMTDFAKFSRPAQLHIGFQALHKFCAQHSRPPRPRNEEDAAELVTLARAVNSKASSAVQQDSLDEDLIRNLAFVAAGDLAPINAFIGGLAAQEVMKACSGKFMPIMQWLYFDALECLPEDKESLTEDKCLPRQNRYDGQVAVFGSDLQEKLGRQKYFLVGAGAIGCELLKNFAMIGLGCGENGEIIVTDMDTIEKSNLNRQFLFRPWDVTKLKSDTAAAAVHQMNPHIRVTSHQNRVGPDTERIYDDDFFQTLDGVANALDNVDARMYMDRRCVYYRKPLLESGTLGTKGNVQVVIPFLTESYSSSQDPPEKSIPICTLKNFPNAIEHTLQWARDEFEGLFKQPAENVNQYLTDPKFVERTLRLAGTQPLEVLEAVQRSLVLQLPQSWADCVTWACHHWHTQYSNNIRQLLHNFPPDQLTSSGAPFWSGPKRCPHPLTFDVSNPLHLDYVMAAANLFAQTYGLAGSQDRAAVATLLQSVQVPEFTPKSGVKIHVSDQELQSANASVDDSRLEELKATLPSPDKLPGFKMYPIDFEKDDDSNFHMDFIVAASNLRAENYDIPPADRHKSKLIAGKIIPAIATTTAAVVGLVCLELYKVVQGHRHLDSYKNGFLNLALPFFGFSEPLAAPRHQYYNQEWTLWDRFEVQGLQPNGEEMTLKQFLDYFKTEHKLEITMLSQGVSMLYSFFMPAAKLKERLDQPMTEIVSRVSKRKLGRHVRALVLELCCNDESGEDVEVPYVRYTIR
Experimental: Since Mdm2 autoubiquitination depends on the activity of E1 and E2, some of these might act by inhibiting E1. In fact, some did block the formation of thiolester linkages between ^32P-labeled ubiquitin and E1 (FIG. 1B). The compound 4-[4-(5-nitro-furan-2-ylmethylene)-3,5-dioxo-pyrazolidin-1-yl]-benzoic acid methyl acid was active at a concentration of 20-50 μM.
b. “E1 Only” Assay. • 2 μl rabbit E1+12 μl of 1× reaction buffer are mixed together with the test compound followed by addition of 1 μl of ^32P Ub. After incubating for 10 minutes at room temperature, the samples are denatured using loading buffer without reducing agent and subjected to SDS-PAGE under non-reducing conditions to maintain thiol-ester linkages and exposure as above.

p53 = assay: Cellular p53 level by immunoblotting; assay type: cell-based; conditions: six hours treatment; RPE cells
Description: (§1) FIG. 5A depicts the increase in the levels of Mdm2 and p53 in RPE cells after treatment with the E1 inhibitor 4-[4-(5-nitro-furan-2-ylmethylene)-3,5-dioxo-pyrazolidin-1-yl]-benzoic acid methyl acid.

NFκB = NFκB response element-driven luciferase reporter, IL-1 induced; assay type: cell-based, human; conditions: HeLa cells, 50 μM for 10 minutes, then IL-1 0-1.0 ng/ml for 2 hours
Experimental: HeLa cells (human epithelial cells) were transfected with a NFκB response element-driven luciferase reporter. The cells were treated with E1 41 (50 μM) for 10 minutes, or dimethyl sulfoxide (DMSO) control. Interleukin 1 (IL-1) was added to the cells for 2 hours. IL-1 was added at concentrations ranging from 0-1.0 ng/ml to induce activation of NFκB. An assay for luciferase activity was carried out according to the methods as described in the commercially available PROMEGA system for luciferase detection.

GST-UbcH5B = target: T2, GST-UbcH5B (Homo sapiens, UniProt P62837); assay: E1+E2 assay: formation of E2-ubiquitin complex; assay type: biochemical; conditions: E1 preloaded with 32P-labeled ubiquitin, then E2 added with compound
T2 construct: made in house; host or cells: bacteria
Experimental: One way that the compounds might inactivate E1 is by alkylating or otherwise irreversibly inactivating active site cysteines. Like E1, E2 also uses a cysteine to form thiolester bond with ubiquitin. Inhibitors that directly act on the cysteine of E1 might therefore also affect E2 activity, and thus function in a relatively non-specific manner. […]
c. E1+E2 Assay with Immobilized E2 • 20 pmoles of bacterially-expressed GST-UbcH5B are bound to GS beads for 30 minutes at room temperature. […] This is followed by resolution by SDS-PAGE under non-reducing conditions and exposure as above.

Mdm2 = assay: Cellular Mdm2 level by immunoblotting; assay type: cell-based; conditions: six hours treatment; RPE cells
Description: as §1

T2 sequence (P62837 whole entry): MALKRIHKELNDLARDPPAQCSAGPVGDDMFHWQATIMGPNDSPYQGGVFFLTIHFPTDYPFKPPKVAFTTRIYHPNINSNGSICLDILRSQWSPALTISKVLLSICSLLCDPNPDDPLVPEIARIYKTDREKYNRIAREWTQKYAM

## COC(=O)c1ccc(N2NC(=O)/C(=C/c3ccc([N+](=O)[O-])o3)C2=O)cc1 [E1-41, 4-[4-(5-nitro-furan-2-ylmethylene)-3,5-dioxo-pyrazolidin-1-yl]-benzoic acid methyl acid]
Rabbit E1
  concentration at which the compound was active: 20 to 50 µM
p53
  cellular p53 level: increased
NFκB
  IL-1 induced NFκB luciferase reporter activity: reduction of luciferase activity
GST-UbcH5B
  transfer of ubiquitin from E1 to E2 (formation of E2-ubiquitin complex): did not affect transfer of ubiquitin from E1 to E2
Mdm2
  cellular Mdm2 level: increased
